From patent US12729209B2, “Macrocyclic compounds and methods of treatment” (University of Florida Research Foundation, Incorporated, priority 2020, dated 2026)
Numbered stars: 1 amine (or outer) side, 2 acyl side, 3 side chain; on linkers, the order of the positions; unused ones are H or OH. Square brackets hold non-standard residues; d marks the D form. Peptide text beside a SMILES is read from it. X1 = CN([C@H](C(=O)[*:2])[C@@H](O)C(N)=O)[*:1]; Pro(4S-Me) = C[C@@H]1CN[C@H](C(=O)O)C1; N(OH)Ala = C[C@H](NO)C(=O)O; Lac = C[C@H](O)C(=O)O; Dha = C=C(N)C(=O)O

How the values were obtained:
[1] = from C=CCON(C(=O)[C@H]([C@@H](O[Si](C)(C)C(C)(C)C)C(=O)NC(c1ccccc1)(c1ccccc1)c1ccccc1)N(C)C(=O)C(C)OC(=O)[C@@H]1CC(C)CN1C(=O)OCC1c2ccccc2-c2ccccc21)[C@@H](C)C(=O)N[C@@H](C[Se]c1ccccc1)C(=O)OCC1c2ccccc2-c2ccccc21; amide bond; PyBOP/HOAt/DIEA; CH2Cl2; 0.61 mM; 25.0 °C; 24.0 h; 2 steps
NCI-60 cell lines = settings: versus paclitaxel, eribulin, colchicine and vinca bis-indole alkaloid derivatives
Text: Furthermore, cervical and breast cancers are relevant indications, prompting additional studies in these cell types^35.

[2] = Qualitative test for Fe(III) chelating ability; assay type: physicochemical; settings: FeCl3 solution in ethanol (5% wt), orange spot
Text: We applied a solution of GB1 (1a) in CH2Cl2 to reverse TLC (C18) (MeOH/H2O 1:1, v/v), then dipped the TLC into FeCl3 solution in ethanol (5% wt).

COLO205 cells = experiment: NCI-60 screen (sulforhodamine B assay), COLO205; assay type: cell-based; settings: NCI-60 data, read-out: GI50 against COLO205 cells
Text: (§1) FIG. 27 depicts a heatmap for the performance of GB1 across cell lines in the NCI-60 screen using three different values (growth-inhibitory effect, GI50; cytostatic effect, TGI; cytotoxic effect, LC50; concentration in M).

HCT116 cells [3] = experiment: NCI-60 screen (sulforhodamine B assay), HCT116; assay type: cell-based, human; settings: NCI-60 data, read-out: GI50 against HCT116 cells
Text: as §1

tubulin = experiment: Tubulin polymerization assay (fluorescence based in vitro kit); assay type: biochemical; settings: tubulin 2 mg/mL, 37° C., 1 hour
Protocol: Tubulin polymerization was performed using fluorescence based in vitro polymerization kit (Cytoskeleton, #BK011P) per the manufacturer recommendation. Briefly, the provided tubulin was reconstituted to 10 mg/mL stock, as recommended, and used at final concentration of 2 mg/mL in 80 mM PIPES pH 6.9, 2.0 mM MgCl2, 0.5 mM EGTA, 1.0 mM GTP and 15% glycerol for the assays. The compound was prepared in 3-fold dilutions and kept on ice until the assay was started. Buffer components and tubulin stocks were kept on ice until use. The assay plate was pre-warmed at 37° C. for 10 minutes and the compounds were added to the plate wells at 5 uL (<10% DMSO) for 1 minute to warm. Fifty microliters of tubulin reaction mix (2 mg/mL in 80 mM PIPES pH 6.9, 2.0 mM MgCl2, 0.5 mM EGTA, 1.0 mM GTP and 15% glycerol) was added to each well and mixed gently with the inhibitor to avoid bubble formation. The plate was read on FlexStation3 reader (Molecular Devices) at 360 nm excitation/450 nm emission, every minute for 1 hours at 37° C. Decrease in fluorescent signal indicated inhibition of polymerization.

HCT116 cells [4] = experiment: HCT116 cell cycle analysis (propidium iodide, flow cytometry); assay type: cell-based, human; settings: 320 nM, 1 μM, 3.2 μM, 24 h
Protocol: FIG. 25 depicts a cell cycle analysis. HCT116 cells were treated with GB1 (320 nM, 1 μM, 3.2 μM) or vehicle control (0.25% DMSO) for 24 h and DNA content assessed by flow cytometry of propidium iodide stained cells.
HCT116 cells were seeded in 6-well plates (400,000 cells/well, DMEM/10% FBS and allowed to attach overnight prior to treatment with GB1. Media was replaced by fresh DMEM/10% FBS after 24 h of incubation and treated with compound and solvent control (0.25% DMSO) for 24 h. The medium in each well was collected separately, and the cells washed with 500 μL PBS and collected into the corresponding tubes. Cells were detached using trypsin (Invitrogen) and collected into the corresponding tubes and centrifuged at 400 g for 10 min at 4° C. The supernatant was discarded and the cell pellets were resuspended in 500 μL ice-cold PBS, centrifuged at 400 g for 10 min at 4° C. and supernatant was discarded. The cell pellets were resuspended in 300 μL ice-cold PBS and 700 μL ice-cold EtOH was added slowly to each cell suspension with gentle pipetting. Cells were incubated at −20° C. overnight and centrifuged at 400 g for 10 min at 4° C. next day. […] Fluorescence from propidium iodide-DNA complexes were quantified using FACScan (BD Biosciences LSRFortessa) and data were analyzed using ModFit LT (Verity Software House).

HCT116^HIF-2α−/− cells = experiment: MTT cell viability assay, isogenic HCT116 HIF-2α knockout; assay type: cell-based, human; settings: 48 h, compared among isogenic lines
Protocol: (§2) Parental HCT116, HCT116^HIF-1α−/−HIF-2α−/−, HCT116^HIF-1α−/−, HCT116^HIF-2α−/−, HCT116^WT KRAS along with normal colon cell line CCD841-CoN were cultured in Dulbecco's modified Eagle medium (DMEM, Life Technologies, USA) supplemented with 10% Fetal Bovine Serum (FBS, Sigma, USA) and maintained in 5% CO2 at 37° C. HCT116 cells (8,000 cells/well) and normal cells (3,000 cells/well) were seeded in 96-well plates, allowed to attach overnight and then treated with different concentrations of GB1 (1a) or solvent control (0.5% DMSO). Cell viability was measured 48 h following treatment with MTT dye using manufacturer's protocol (Promega). IC50 was determined by non-linear regression analysis using GraphPad Prism 8. Data are represented as average±SD (n=3).

[5] = system: HCT116^HIF-1α−/−HIF-2α−/− cells; experiment: MTT cell viability assay, isogenic HCT116 double knockout; assay type: cell-based, human; settings: 48 h, versus parental HCT116
Protocol: as §2

HeLa cells = experiment: Caspase-3/7 activity (Caspase-Glo 3/7) in HeLa cells; assay type: cell-based; settings: increasing concentrations, 14 h, 24 h and 36 h
Protocol: FIG. 29 depicts that GB1 causes apoptosis in HeLa cells with increased caspase activity. HeLa cells were treated with increasing concentrations of GB1 and combretastatin-4 (CA-4) (100 nM) using 0.5% DMSO as solvent control. Caspase-3/7 activity was measured using Caspase-Glo 3/7 reagent kit at 14 h, 24 h and 36 h. Data represents average of three replicates with ±SD. The p-values were calculated using two-tailed Student t-test; *p<0.05, **p<0.01, ***p<0.005.

HCT116^WT KRAS cells = experiment: MTT cell viability assay, oncogenic KRAS knockout; assay type: cell-based, human; settings: 48 h, versus parental HCT116
Protocol: as §2

[6] = system: HCT116 colorectal cancer cells; experiment: MTT cell viability assay, parental HCT116; assay type: cell-based, human; settings: for IC50: 48 h treatment, read-out: IC50 against HCT116 colorectal cancer cells
Protocol: as §2

HCT116^HIF-1α−/− cells = experiment: MTT cell viability assay, isogenic HCT116 HIF-1α knockout; assay type: cell-based, human; settings: 48 h, versus parental HCT116
Protocol: as §2

[7] = system: CCD841-CoN normal epithelial colon cells; experiment: MTT cell viability assay, normal colon cells; assay type: cell-based; settings: 48 h treatment
Protocol: as §2

VEGFA = experiment: HIF target gene (VEGFA) expression by RT-qPCR; assay type: cell-based, human; settings: 3.2 μM (4×IC50), 16 h, parental HCT116 cells, β-actin endogenous control
Protocol: FIG. 26 depicts HIF target gene (VEGFA) expression after 16 h exposure of parental HCT116 cells to GB1 (3.2 μM) or vehicle (0.25% DMSO). RNA was isolated, reverse transcribed and subjected to qPCR using TaqMan analysis. β-actin served as endogenous control. Error bars indicate mean±SD of three replicates (student t test, *p<0.05).
HCT116 cells were seeded in 6-well plates at a density of 4×10^5 per well and incubated overnight for cells to attach. Cells were treated with 3.2 μM GB1 or 0.25% DMSO (vehicle). RNA was isolated 16 h later using the RNeasy mini kit (QIAGEN, Valencia, CA). Total RNA was quantified using NanoDrop 2000. cDNA synthesis was carried out using SuperScript II Reverse Transcriptase (Invitrogen, Carlsbad, CA) and oligo (dT) (Invitrogen) from 2 μg of total RNA. The qPCR after reverse transcription (RT-qPCR) was performed on a 25 μL reaction solution containing a […] aliquot of cDNA, 12.5 μL of TaqMan gene expression master mix, 1.25 μL of probes, and 11 μL RNase-free water. qPCR was carried out on an ABI 7300 sequence detection system using the thermocycler program: 2 min at 50° C., 10 min at 95° C., and 15 s at 95° C. (40 cycles) and 1 min at 60° C. Experiments were performed in triplicate. Probes for target gene: VEGFA (Hs00900055_m1) and for endogenous control: β-actin (Hs99999903_m1). […]

[8] = system: melanoma (SK-MEL-5) cancer cells; experiment: NCI-60 screen, SK-MEL-5; assay type: cell-based; settings: NCI-60 data
Text: as §1

[9] = system: prostate (DU-145) cancer cells; experiment: NCI-60 screen, DU-145; assay type: cell-based; settings: NCI-60 data
Text: as §1

[10] = system: ovarian (OVCAR-3) cancer cells; experiment: NCI-60 screen, OVCAR-3; assay type: cell-based; settings: NCI-60 data
Text: as §1

Molecule | ring closure, yield of all isomers [1] [%] | COMPARE correlation (P) of cytotoxicity profile with antimitotic/tubulin agents (NCI-60 cell lines) | Fe(III) chelating ability (FeCl3 on TLC) [2] | GI50 (COLO205 cells) [nM] | GI50 (HCT116 cells [3]) [nM] | inhibition of tubulin polymerization in vitro (tubulin) | cell cycle effect (DNA content) (HCT116 cells [4]) | antiproliferative activity, relative susceptibility of HCT116^HIF-2α−/− (HCT116^HIF-2α−/− cells) | potency and efficacy against HCT116^HIF-1α−/−HIF-2α−/− [5] | caspase-3/7 activity / apoptosis in HeLa cells (HeLa cells) | potency and efficacy against oncogenic KRAS knockout (HCT116^WT KRAS) (HCT116^WT KRAS cells) | antiproliferative activity, relative susceptibility of parental HCT116 cells ([6]; 48 h, compared among isogenic lines) | IC50 [6] [nM] | potency and efficacy against HCT116^HIF-1α−/− (HCT116^HIF-1α−/− cells) | effect on the viability of CCD-841CoN normal epithelial colon cells [7] | IC50 ([7]; read-out: IC50 against normal mucosal colon cells) [nM] | HIF-1α target gene VEGFA expression (VEGFA) | susceptibility of SK-MEL-5 melanoma cells [8] | susceptibility of DU-145 prostate cancer cells [9] | susceptibility of OVCAR-3 ovarian cancer cells [10]
C=CCON1C(=O)[C@H]([C@@H](O[Si](C)(C)C(C)(C)C)C(=O)NC(c2ccccc2)(c2ccccc2)c2ccccc2)N(C)C(=O)C(C)OC(=O)[C@@H]2CC(C)CN2C(=O)[C@H](C[Se]c2ccccc2)NC(=O)[C@@H]1C (stereo partly drawn) | 60.3 |  |  |  |  |  |  |  |  |  |  |  |  |  |  |  |  |  |  | 
C=C1NC(=O)[C@H](C)N(O)C(=O)[C@H]([C@@H](O)C(N)=O)N(C)C(=O)[C@H](C)OC(=O)[C@@H]2C[C@H](C)CN2C1=O [GB1, Gatorbulin-1] (cyclo([Dha][Pro(4S-Me)][Lac][X1][N(OH)Ala])) |  | 0.75-0.85 | positive reaction | 92 | 306 | directly inhibits tubulin polymerization | induced G2/M accumulation | most susceptible | reduced | induces apoptosis | reduced | most susceptible | 800 | reduced | marginal effect | > 10000 | downregulation | susceptible | susceptible | susceptible
Gatorbulin-2 [GB2] |  |  |  |  |  |  |  |  |  |  |  |  | > 10000 |  |  |  |  |  |  | 
